# Columns and labels:
# Assay in all cases: relative viability (nuclei count vs DMSO), 5 days (fraction); higher = more cells survive
# Motesanib + Pictilisib = compound: CC1(C)CNc2cc(NC(=O)c3cccnc3NCc3ccncc3)ccc21 [Motesanib] + CS(=O)(=O)N1CCN(Cc2cc3nc(-c4cccc5[nH]ncc45)nc(N4CCOCC4)c3s2)CC1 [Pictilisib] (partner 1 µM)
# Outline: (§1)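 The day after seeding in 1536-well plates, lung cancer cell lines were treated by pin tool with a single drug, or with a fixed anchor-drug dose together with five library-drug doses (not always all listed) in √10 steps. After 5 days, a combined fix-and-stain solution (final 0.05% Triton X-100, 1% formaldehyde, 1 ug/ml Hoechst) was added. Nuclei counted on 4× images gave relative viability as treated counts over vehicle counts, reported as the median of duplicate plates.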
# Motesanib + Decitabine = compound: CC1(C)CNc2cc(NC(=O)c3cccnc3NCc3ccncc3)ccc21 [Motesanib] + Nc1ncn([C@H]2C[C@H](O)[C@@H](CO)O2)c(=O)n1 [Decitabine] (partner 2 µM)
# Outline: as §1
# [1] = compound: C[C@@]1(C(=O)Nc2ccc(F)nc2)CCCN1c1nc(Nc2cc(C3CC3)n[nH]2)c2cccn2n1 + CC(=O)Nc1cccc(-n2c(=O)n(C3CC3)c(=O)c3c(Nc4ccc(I)cc4F)n(C)c(=O)c(C)c32)c1 [Trametinib] (partner 0.02 µM)
# Outline: as §1
# [2] = compound: C[C@@]1(C(=O)Nc2ccc(F)nc2)CCCN1c1nc(Nc2cc(C3CC3)n[nH]2)c2cccn2n1 + C[C@@H](Oc1cc(-c2cnn(C3CCNCC3)c2)cnc1N)c1c(Cl)ccc(F)c1Cl [Crizotinib] (partner 1 µM)
# Outline: as §1
cell line,measurement,setting,value
UMC-11,relative viability,Motesanib + Pictilisib; first compound 0.01 µM,0.778
same,relative viability,Motesanib + Pictilisib; first compound 0.03162 µM,0.923
same,relative viability,Motesanib + Pictilisib; first compound 0.1 µM,0.5
same,relative viability,Motesanib + Pictilisib; first compound 0.3162 µM,0.759
same,relative viability,Motesanib + Pictilisib; first compound 1 µM,0.863
same,relative viability,Motesanib + Decitabine; first compound 0.01 µM,0.611
same,relative viability,Motesanib + Decitabine; first compound 0.03162 µM,0.677
same,relative viability,Motesanib + Decitabine; first compound 0.1 µM,0.331
same,relative viability,Motesanib + Decitabine; first compound 0.3162 µM,0.653
same,relative viability,Motesanib + Decitabine; first compound 1 µM,0.724
same,relative viability,[1]; first compound 0.04 µM,0.703
same,relative viability,[1]; first compound 0.1265 µM,0.671
same,relative viability,[1]; first compound 0.4 µM,0.651
same,relative viability,[1]; first compound 1.265 µM,0.648
same,relative viability,[2]; first compound 0.04 µM,0.615
same,relative viability,[2]; first compound 0.1265 µM,0.628
same,relative viability,[2]; first compound 0.4 µM,0.534
same,relative viability,[2]; first compound 1.265 µM,0.328

# — the supplement of paper PMC10307832
